# From patent publication US20100324067A1, “TETRACYCLIC DIPYRANO-COUMARIN COMPOUNDS WITH ANTI-HIV AND ANTI-MYCOBACTERIUM TUBERCULOSIS ACTIVITIES” (priority 2007, published 2010)
# Where two headings read alike, the source gives them in different places.
# What was measured:
# [1] = test system: Mycobacterium tuberculosis H37Rv (ATCC 27294); experiment: Microplate Alamar Blue Assay (MABA) in BACTEC 12B medium (TAACF screen); format: cell-based; details: for IC50: read-out: IC50
# [2] = read-out: anti-TB active compound (MIC90 less than 10 μg/mL), classification
melting point,Structure (SMILES),"IC50 ([1]; MABA, H37Rv)","MIC90 ([1]; MABA, H37Rv, read-out: MIC90)","MIC90 [1, 2]"
–,"O=c1oc2cc(O)cc(O)c2c2c1CCC2 [Example 6-26, 3,4-cyclopentyl-5,7-dihydroxy-coumarin]",9.97 µg/mL,24.4 µg/mL,–
147 to 149 °C,C/C=C/C1C=Cc2c3c(c4oc(=O)cc(CCC(F)(F)F)c4c2O1)C(=O)CC(C)O3 (stereo not drawn),–,–,–
–,Cc1c(Cl)c(=O)oc2c3c(c4c(c12)OC(C)(C)C=C4)OC(C)CC3=O (stereo not drawn) [Example 3],33.4 µg/mL,> 100 µg/mL,–
–,"CCCCc1cc(=O)oc2cc(O)cc(O)c12 [Example 6-36, 4-n-butyl-5,7-dihydroxy-coumarin]",11.3 µg/mL,14.4 µg/mL,–
–,"CCCc1cc(=O)oc2c3c(cc(OS(=O)(=O)c4ccc(C)cc4)c12)OC(C)CC3=O (stereo not drawn) [Example 5a-101, 5-(p-tolyl)sulfonyloxy-8-methyl-4-n-propyl-2H-benzo[2,3-f]dipyranyl-2,10-dione]",4.2 µg/mL,6.66 µg/mL,< 10 µg/mL
119 to 121 °C,CCCCC1C=Cc2c3c(c4oc(=O)c(F)c(CCC)c4c2O1)C(=O)CC(C)O3 (stereo not drawn),–,–,–
–,"CCCc1cc(=O)oc2c3c(cc(O)c12)O[C@@H]1CCCC[C@@H]1C3=O [Example 5a-19, benzo[1,2-b:3,4-b′]-dipyranyl-5-hydroxyl-8,9-cis-cyclohexyl-2,10-dione]",83.1 µg/mL,> 100 µg/mL,–
> 220 °C (dec.),CCCc1cc(=O)oc2c3c(c4c(c12)OC(C)(C)C=C4)OC(CN)CC3=O (stereo not drawn),–,–,–
148 to 149 °C,CCCc1cc(=O)oc2c3c(c4c(c12)OC(C)(C)C=C4)OC(CN1CCCC1)CC3=O (stereo not drawn),–,–,–
–,Cc1c(Cc2ccccc2)c(=O)oc2c3c(c4c(c12)OC(C)(C)C=C4)OC(C)CC3=O (stereo not drawn) [Example 4],7.52 µg/mL,> 100 µg/mL,–
–,"O=c1cc(CCC(F)(F)F)c2c(O)cc(O)cc2o1 [Example 6-71, 4-(3,3′,3″-trifluoro)-n-propyl-5,7-dihydroxy-coumarin]",2.53 µg/mL,4.06 µg/mL,< 10 µg/mL
132 to 135 °C,CCCc1cc(=O)oc2c3c(c4c(c12)OC(C)(C)C=C4)OC(=O)CC3,–,–,–
–,"CCCc1cc(=S)oc2c3c(cc(OS(=O)(=O)c4ccc(C)cc4)c12)OC(C)CC3=O (stereo not drawn) [Example 5a-102, 5-(p-tolyl)sulfonyloxy-8-methyl-4-n-propyl-2-thio-2H-benzo[2,3-f]dipyranyl-2,10-dione]",5.48 µg/mL,6.24 µg/mL,< 10 µg/mL
140 to 142 °C,CCCc1c(Cl)c(=O)oc2c3c(c4c(c12)OC(CCC)C=C4)OC(C)CC3=O (stereo not drawn),–,–,–
138 to 139 °C,CCCCC1C=Cc2c3c(c4oc(=O)cc(CCC)c4c2O1)C(=O)CC(C)O3 (stereo not drawn),–,–,–
129 to 131 °C,CCCc1cc(=O)oc2c3c(c4c(c12)OC(C)(C)C=C4)OC(CNS(=O)(=O)c1ccc(F)cc1)CC3=O (stereo not drawn),–,–,–
–,CCCCCC1CC(=O)c2c(cc(O)c3c(CCC)cc(=O)oc23)O1 (stereo not drawn) [Example 5a-15],66 µg/mL,> 100 µg/mL,–
–,"CCCc1cc(=O)oc2c1c(O)cc1occc(=O)c12 [Example 5a-13, 5-hydroxyl-4-n-propyl-benzo[2,3-f]-pyranyl-2,10-dione]",46.7 µg/mL,53.4 µg/mL,–
–,"CCCc1cc(=O)oc2c3c(cc(O)c12)OC(c1ccccc1)CC3=O (stereo not drawn) [Example 5a-16, benzo[1,2-b:3,4-b′]-dipyranyl-5-hydroxyl-8-phenyl-2,10-dione]",22.5 µg/mL,25.1 µg/mL,–
–,"Cc1cc(=O)oc2cc3c(c(O)c12)C(=O)CC(C)O3 (stereo not drawn) [Example 5b-1, benzo[1,2-b:3,4-b′]-dipyranyl-5-hydroxyl-4,8-dimethyl-2,6-dione]",43.1 µg/mL,> 100 µg/mL,–
–,"CCCc1c(Cl)c(=O)oc2c3c(cc(O)c12)OC(C)CC3=O (stereo not drawn) [Example 5a-20, benzo[1,2-b:3,4-b′]-dipyranyl-5-hydroxyl-8-methyl-3-chloro-4-n-propyl-2,10-dione]",26.9 µg/mL,42 µg/mL,–
–,"CCCc1cc(=O)oc2cc3c(c(O)c12)C(=O)CC(CCC)O3 (stereo not drawn) [Example 5b-14, benzo[1,2-b:3,4-b′]-dipyranyl-5-hydroxyl-4,8-di-n-propyl-2,6-dione]",6.59 µg/mL,> 100 µg/mL,–
–,CCCCc1cc(=O)oc2c3c(c4c(c12)OC(C)(C)C=C4)OC(C)CC3=O (stereo not drawn) [Example 36],24.2 µg/mL,36.6 µg/mL,–
108 to 109 °C,CCCc1cc(=O)oc2c3c(c4c(c12)OC(C)(C)C=C4)OC(CNS(=O)(=O)c1ccc(OC)cc1)CC3=O (stereo not drawn),–,–,–
